# From US20110218199A1, “PYRIDONEAMIDE DERIVATIVES, THEIR MANUFACTURE AND USE AS PHARMACEUTICAL AGENTS” (priority 2007, published 2011)
# System: HCT 116 cells
# Assay: CellTiter-Glo assay in HCT 116 cells (antiproliferative activity)
# Assay type: cell-based
# Settings: Homo sapiens, HCT-116, 120 h, CellTiter-Glo cell viability, HCT 116 human colon carcinoma, 5 days (120 h) incubation
# Description: Antiproliferative Activity:
# CellTiter-Glo™ Assay in HCT 116 Cells:
# The CellTiter-Glo™ Luminescent Cell Viability Assay (Promega) is a homogeneous method of determining the number of viable cells in culture based on quantitation of the ATP present, which signals the presence of metabolically active cells.
# HCT 116 cells (human colon carcinoma, ATCC-No. CCl-247) were cultivated in RPMI 1640 medium with GlutaMAX• I (Invitrogen, Cat-No. 61870-010), 5% Fetal Calf Serum (FCS, Sigma Cat-No. F4135 (FBS)); 100 Units/ml penicillin/100 μg/ml streptomycin (=Pen/Strep from Invitrogen Cat. No. 15140). For the assay the cells were seeded in 384 well plates, 1000 cells per well, in the same medium. The next day the test compounds were added in various concentrations ranging from 30 μM to 0.0015 μM (10 concentrations, 1:3 diluted). After 5 days the CellTiter-Glo™ assay was done according to the instructions of the manufacturer (CellTiter-Glo™ Luminescent Cell Viability Assay, from Promega). In brief: the cell-plate was equilibrated to room temperature for approximately 30 minutes and than the CellTiter-Glo™ reagent was added. The contents were carefully mixed for 15 minutes to induce cell lysis. After 45 minutes the luminescent signal was measured in Victor 2, (scanning multiwell spectrophotometer, Wallac).
# 1st. Day: • Medium: RPMI 1640 with GlutaMAX™ I (Invitrogen, Cat-Nr. 61870), 5% FCS (Sigma Cat.-No. F4135), Pen/Strep (Invitrogen, Cat No. 15140). • HCT116 (ATCC-No. CC1-247): 1000 cells in 60 μl per well of 384 well plate (Greiner 781098, μClear-plate white) • After seeding incubate plates 24 h at 37° C., 5% CO2
# 2nd. Day: Induction (Treatment with Compounds, 10 Concentrations):
# In order to achieve a final concentration of 30 μM as highest concentration 3.5 μl of 10 mM compound stock solution were added directly to 163 μl media. Then step e) of the dilution procedure described below, was followed.
# In order to achieve the second highest to the lowest concentrations, a serial dilution with dilution steps of 1:3 was followed according to the procedure (a-e) as described here below: • a) for the second highest concentration add 10 μl of 10 mM stock solution of compound to 20 μl dimethylsulfoxide (DMSO) • b) dilute 8×1:3 (always 10 μl to 20 μl DMSO) in this DMSO dilution row (results in 9 wells with concentrations from 3333.3 μM to 0.51 μM) • c) dilute each concentration 1: 47.6 (3.5 μl compound dilution to 163 μl media) • d) add 10 μl of every concentration to 60 μl media in the cell plate resulting in final concentration of DMSO: 0.3% in every well and resulting in 10 final concentration of compounds ranging from 30 μM to 0.0015 μM. • Each compound is tested in triplicate. • Incubate 120 h (5 days) at 37° C., 5% CO2 […]
# Add 30 μl CellTiter-Glo™ Reagent (prepared from CellTiter-Glo™ Buffer and CellTiter-Glo™ Substrate (lyophilized) purchased from Promega) per well, shake 15 minutes at room temperature incubate further 45 minutes at room temperature without shaking
# Victor 2 scanning multiwell spectrophotometer (Wallac), Luminescence mode (0.5 sec/read, 477 nm) Determine IC50 using a non-linear curve fit (XLfit software (ID Business Solution Ltd., Guilford, Surrey, UK))
row,Compound,IC50
1,"O=C(Nc1ccc(N2CCOCC2)cc1)c1c(NCc2ccccn2)cc[nH]c1=O [Example 6r, 2-Oxo-4-[(pyridin-2-ylmethyl)-amino]-1,2-dihydro-pyridine-3-carboxylic acid (4-morpholin-4-yl-phenyl)-amide]",500 to 15000 nM
2,"CC(CNc1cc[nH]c(=O)c1C(=O)Nc1cccc(CN2CCCCC2)c1)c1ccccc1 (stereo not shown) [Example 6u, 2-Oxo-4-(2-phenyl-propylamino)-1,2-dihydro-pyridine-3-carboxylic acid (3-piperidin-1-ylmethyl-phenyl)-amide]",500 to 15000 nM
3,"COc1ccc(NC(=O)c2c(NCCc3cccc(Cl)c3)cc[nH]c2=O)cc1N1CCN(C)CC1 [Example 6o, 4-[2-(3-Chloro-phenyl)-ethylamino]-2-oxo-1,2-dihydro-pyridine-3-carboxylic acid [4-methoxy-3-(4-methyl-piperazin-1-yl)-phenyl]-amide]",500 to 15000 nM
4,"CN1CCN(c2ccc(NC(=O)c3c(NCCc4cccc(Cl)c4)cc[nH]c3=O)cc2F)CC1 [Example 4a, 4-[2-(3-Chloro-phenyl)-ethylamino]-2-oxo-1,2-dihydro-pyridine-3-carboxylic acid [3-fluoro-4-(4-methyl-piperazin-1-yl)-phenyl]-amide]",500 to 15000 nM
5,"O=C(Nc1cccc(N2CCCCC2)c1)c1c(NCCc2cccc(Cl)c2)cc[nH]c1=O [Example 2n, 4-[2-(3-Chloro-phenyl)-ethylamino]-2-oxo-1,2-dihydro-pyridine-3-carboxylic acid (3-piperidin-1-yl-phenyl)-amide]",500 to 15000 nM
6,"CN1CCN(c2ccc(NC(=O)c3c(NCc4ccccn4)cc[nH]c3=O)cc2)CC1 [Example 2s, 2-Oxo-4-[(pyridin-2-ylmethyl)-amino]-1,2-dihydro-pyridine-3-carboxylic acid [4-(4-methyl-piperazin-1-yl)-phenyl]-amide]",500 to 15000 nM
7,"O=C(Nc1cccc(N2CCCCC2)c1)c1c(NCc2ccccn2)cc[nH]c1=O [Example 2o, 2-Oxo-4-[(pyridin-2-ylmethyl)-amino]-1,2-dihydro-pyridine-3-carboxylic acid (3-piperidin-1-yl-phenyl)-amide]",500 to 15000 nM
8,"O=C(Nc1cccc(CN2CCCCC2)c1)c1c(NCCc2ccccc2)cc[nH]c1=O [Example 6t, 2-Oxo-4-phenethylamino-1,2-dihydro-pyridine-3-carboxylic acid (3-piperidin-1-ylmethyl-phenyl)-amide]",500 to 15000 nM
9,"CN1CCN(c2ccc(NC(=O)c3c(NCc4ccccn4)cc[nH]c3=O)cc2F)CC1 [Example 2k, 2-Oxo-4-[(pyridin-2-ylmethyl)-amino]-1,2-dihydro-pyridine-3-carboxylic acid [3-fluoro-4-(4-methyl-piperazin-1-yl)-phenyl]-amide]",500 to 15000 nM
10,"CSc1cccc(NC(=O)c2c(NC[C@@H](O)c3cccc(Cl)c3)cc[nH]c2=O)c1 [Example 4q, 4-[(S)-2-(3-Chloro-phenyl)-2-hydroxy-ethylamino]-2-oxo-1,2-dihydro-pyridine-3-carboxylic acid (3-methylsulfanyl-phenyl)-amide]",500 to 15000 nM
11,"CC(=O)N1CCN(c2ccc(NC(=O)c3c(NC[C@@H](O)c4cccc(Cl)c4)cc[nH]c3=O)cc2C(F)(F)F)CC1 [Example 4d, 4-[(S)-2-(3-Chloro-phenyl)-2-hydroxy-ethylamino]-2-oxo-1,2-dihydro-pyridine-3-carboxylic acid [4-(4-acetyl-piperazin-1-yl)-3-trifluoromethyl-phenyl]-amide]",1250 nM
12,"COc1ccc(NC(=O)c2c(NCC(C)c3ccccc3)cc[nH]c2=O)cc1N1CCN(C)CC1 (stereo not shown) [Example 6j, 2-Oxo-4-(2-phenyl-propylamino)-1,2-dihydro-pyridine-3-carboxylic acid [4-methoxy-3-(4-methyl-piperazin-1-yl)-phenyl]-amide]",500 to 15000 nM
13,"CSc1cccc(NC(=O)c2c(NCc3ccccn3)cc[nH]c2=O)c1 [Example 6s, 2-Oxo-4-[(pyridin-2-ylmethyl)-amino]-1,2-dihydro-pyridine-3-carboxylic acid (3-methylsulfanyl-phenyl)-amide]",500 to 15000 nM
14,"CN(C)c1cccc(NC(=O)c2c(NC[C@@H](O)c3cccc(Cl)c3)cc[nH]c2=O)c1 [Example 2w, 4-[(S)-2-(3-Chloro-phenyl)-2-hydroxy-ethylamino]-2-oxo-1,2-dihydro-pyridine-3-carboxylic acid (3-dimethylamino-phenyl)-amide]",500 to 15000 nM
15,"CS(=O)(=O)c1cccc(NC(=O)c2c(NC[C@@H](O)c3cccc(Cl)c3)cc[nH]c2=O)c1 [Example 4p, 4-[(S)-2-(3-Chloro-phenyl)-2-hydroxy-ethylamino]-2-oxo-1,2-dihydro-pyridine-3-carboxylic acid (3-methanesulfonyl-phenyl)-amide]",500 to 15000 nM
16,"O=C(Nc1ccc(N2CCCC2)c(C(F)(F)F)c1)c1c(NCc2ccccn2)cc[nH]c1=O [Example 2j, 2-Oxo-4-[(pyridin-2-ylmethyl)-amino]-1,2-dihydro-pyridine-3-carboxylic acid (4-pyrrolidin-1-yl-3-trifluoromethyl-phenyl)-amide]",500 to 15000 nM
17,"O=C(Nc1cccc(N2CCOCC2)c1)c1c(NC[C@@H](O)c2cccc(Cl)c2)cc[nH]c1=O [Example 4m, 4-[(S)-2-(3-Chloro-phenyl)-2-hydroxy-ethylamino]-2-oxo-1,2-dihydro-pyridine-3-carboxylic acid (3-morpholin-4-yl-phenyl)-amide]",500 to 15000 nM
18,"O=C(Nc1ccc(N2CCOCC2)c(F)c1)c1c(NCCc2cccc(Cl)c2)cc[nH]c1=O [Example 2a, 4-[2-(3-Chloro-phenyl)-ethylamino]-2-oxo-1,2-dihydro-pyridine-3-carboxylic acid (3-fluoro-4-morpholin-4-yl-phenyl)-amide]",500 to 15000 nM
19,"COc1ccc(NC(=O)c2c(NC3CCCCC3)cc[nH]c2=O)cc1N1CCN(C)CC1 [Example 6m, 4-Cyclohexylamino-2-oxo-1,2-dihydro-pyridine-3-carboxylic acid [4-methoxy-3-(4-methyl-piperazin-1-yl)-phenyl]-amide]",500 to 15000 nM
20,"CN1CCN(c2ccc(NC(=O)c3c(NCCc4cccc(Cl)c4)cc[nH]c3=O)cc2)CC1 [Example 4b, 4-[2-(3-Chloro-phenyl)-ethylamino]-2-oxo-1,2-dihydro-pyridine-3-carboxylic acid [4-(4-methyl-piperazin-1-yl)-phenyl]-amide]",500 to 15000 nM
21,"O=C(Nc1cccc(CN2CCCC2)c1)c1c(NCCc2ccccc2)cc[nH]c1=O [Example 6w, 2-Oxo-4-phenethylamino-1,2-dihydro-pyridine-3-carboxylic acid (3-pyrrolidin-1-ylmethyl-phenyl)-amide]",500 to 15000 nM
22,"CC(CNc1cc[nH]c(=O)c1C(=O)Nc1cccc(CN2CCCC2)c1)c1ccccc1 (stereo not shown) [Example 6v, 2-Oxo-4-(2-phenyl-propylamino)-1,2-dihydro-pyridine-3-carboxylic acid (3-pyrrolidin-1-ylmethyl-phenyl)-amide]",500 to 15000 nM
23,"CC(CNc1cc[nH]c(=O)c1C(=O)Nc1ccc(N2CCN(C)CC2)cc1)c1ccccc1 (stereo not shown) [Example 6ae, 2-Oxo-4-(2-phenyl-propylamino)-1,2-dihydro-pyridine-3-carboxylic acid [4-(4-methyl-piperazin-1-yl)-phenyl]-amide]",500 to 15000 nM
24,"COc1ccc(NC(=O)c2c(NC[C@@H](O)c3cccc(Cl)c3)cc[nH]c2=O)cc1N1CCN(C)CC1 [Example 4i, 4-[(S)-2-(3-Chloro-phenyl)-2-hydroxy-ethylamino]-2-oxo-1,2-dihydro-pyridine-3-carboxylic acid [4-methoxy-3-(4-methyl-piperazin-1-yl)-phenyl]-amide]",500 to 15000 nM
25,"CN1CCN(c2cccc(NC(=O)c3c(NCCc4c[nH]c5ccccc45)cc[nH]c3=O)c2)CC1 [Example 4ae, 4-[2-(1H-Indol-3-yl)-ethylamino]-2-ozo-1,2-dihydro-pyridine-3-carboxylic acid [3-(4-methyl-piperazin-1-yl)-phenyl]-amide]",500 to 15000 nM
